Assay results as given in US20260242365A1, “USES OF CERTAIN 1,4-OXAZEPANE-2-CARBOXAMIDES AS DPP1 INHIBITORS” (Insmed Incorporated, priority 2023, published 2026).

Key:
human DPP1 = biological target: T1, human DPP1 (Homo sapiens, UniProt P53634); test: Human DPP1 Enzyme IC50 Assay; format: biochemical; details: activated human DPP1 enzyme, H-Gly-Arg-AMC substrate
T1 construct: was first proteolytically processed into its mature form using recombinant human cathepsin L; purchased R&D Systems
Method: Recombinant human DPP1 enzyme (R&D Systems; Minneapolis, MN) was first proteolytically processed into its mature form using recombinant human cathepsin L (R&D Systems) in a buffer consisting of 20 mM citric acid pH 4.5, 150 mM NaCl, 1 mM EDTA and 10 mM DTT. Alternatively, a crude lysate of HL-60 cells (ATCC; Manassas, VA) is used as a source of human DPP1 enzyme in the assay. Lysate was prepared in 1% Triton X-100 in PBS at a concentration of 20,000 live cells per μL of lysis buffer and centrifuged at 16,000×g for 10 minutes at 4° C., after which supernatant was collected and flash-frozen in liquid nitrogen.
Test articles were applied to activated human DPP1 enzyme in Assay Buffer (25 mM MES pH 6.0, 50 mM NaCl, 5 mM DTT) in a total reaction volume of 125 μL. 25 μL of compound in Assay Buffer plus 5% DMSO was first added to 50 μL of activated human DPP1 enzyme at a concentration of 1 ng/μL and allowed to pre-incubate for 10 minutes at 37° C. after which 50 μL of 1000 μM H-Gly-Arg-AMC substrate (Bachem; St. Torrance, CA) was added, giving final substrate concentration of 400 μM and a final DMSO concentration of 1%. Substrate cleavage was measured for 90 minutes at 37° C., with fluorescence at Excitation/Emission 350/450 nm measured every 5 minutes. DPP1 concentration was interpolated based on its activity relative to a standard curve of activated human recombinant DPP1 enzyme. IC50 values for each compound were calculated via the XLFit (IDBS Version 5.3.1.3) Add-On to Microsoft Excel using the four parameter fit equation y=(A+ ((B−A)/(1+ ((C/x)^D)))), which appears as equation number 205 (4 Parameter Logistic Model or Sigmoidal Dose-Response Model) in XLFit. Default constraints were used for each Parameter.

Neutrophil elastase (NE) = test: Neutrophil elastase activity in lysates of mouse bone marrow progenitor cells differentiated into neutrophils under DPP1 inhibitor; format: cell-based
Method: (§1) Male or female C57BL/6 mice at the age of 8-14 weeks were used.
(§2) The two femurs and two tibias were removed out of a single mouse and gauze was used to remove the muscles and residue tissues. A sterile environment for surgical instruments and surgical sites is maintained. The bones were put into one 15-mL tube with cold sterile RPMI medium and placed on ice until further processing is performed.
(§3) A fresh 50-mL tube is placed on ice and a fresh 40/70 μm cell strainer (CLS431750, Sigma) is inserted into the top of the Falcon tube. Both ends of two femurs and two tibias are cut with bone cutters and flush bone marrow of all bones from one single mouse are placed into the cell strainer. 5-mL of ice-cold RPMI (RPMI medium containing 10 mM HEPES, pH 7.4) was used for each femur or tibia using a blunt needle (25 G needle), totaling about 20 mL per tube.
(§4) The cell suspension is centrifuged at 600×g for 5 min at 4° C. and the supernatant is carefully discarded.
(§5) The cell pellet is resuspended in 400 μL of ice-cold MACS buffer (PH7.2 PBS plus 0.5% BSA and 2 mM EDTA) for one adult mouse (optimized for 4 bones/mouse).
(§6) 100 μL Direct Lineage Cell Depletion Cocktail (which is enough for 100 million cells depletion) is added. The components are mixed well and incubated for 10 min. at 2° C.-8° C.
(§7) Magnetic separation LS Column (MACS, Miltenyi, 130 042 401) is prepared by placing it in the magnetic field of MACS Separator and rinsing with 3 mL of ice-cold MACS buffer.
(§8) Cell suspension is applied onto the column. Flow-through containing unlabeled cells, representing the enriched lineage negative cells, is collected.
(§9) Column is washed with 3×3 mL of ice-cold MACS buffer. Unlabeled cells that pass through are collected, representing the enriched lineage negative cells, and combined with the flow-through from prior step.
(§10) The cell suspension is centrifuged at 600×g for 5 min at 4° C., and the supernatant is carefully discarded. The pellet is washed once with 10 mL ice cold IMDM medium (IMDM GlutaMax (Gibco, 31980030) plus 10% FCS and 1% PS).
(§11) The cell pellet is resuspended with 2 mL ice-cold complete IMDM medium and the cells are counted. The cells are then ready for neutrophil differentiation.
(§12) The resulting undifferentiated bone marrow cells are in complete IMDM medium (IMDM with 10% FBS and 1% antibiotics); and the concentration of cells is adjusted to 1×10^5 cells/mL, supplemented with 50 ng/ml of SCF (BioLegend, 579704) and 50 ng/ml of IL 3 (BioLegend, 575504). The cells are subgrouped and the respective DPP1 inhibitors are added accordingly. Cells are then cultivated in a flask at 37° C. for 3 days.
(§13) Cells are checked each day for expansion and maintaining a final concentration between 2-10×10^5 cells/ml. On day 3, cells are counted. 3-4 million cells for each group are harvested and lystates prepared for NSPs activity detection. The left cells are resuspended at 2× 10^5 cells/mL in fresh medium supplemented with 50 ng/ml of SCF, 50 ng/ml of IL 3 and 50 ng/ml of G-CSF (BioLegend, 574604). The DPP1 inhibitors are refreshed in the medium. Cells are then cultivated in a flask at 37° C. for another 2 days.
(§14) On day 5, cells are counted. 3-4 million cells/condition are harvested and the cells are lysed to prepare samples for NSPs activity detection. The remaining cells are collected by centrifugation at 600×g for 5 min. The left cells are washed once in 1×PBS. After the wash, the pelleted cells are resuspended in complete IMDM medium at 4-6×10^5 cells/mL supplemented with 50 ng/ml of G-CSF only. The DPP1 inhibitors in the medium are refreshed. Cells incubate for additional 2 days, for a total of 7 days from day of harvest. On day 7, cells are counted. 3-4 million cells/condition are harvested and the cell lysed to prepare samples for NSPs activity detection.
(§15) 3-4 million cells are collected into Eppendorf tubes. Samples are spun down at 600×g, 4° C. for 5 min. The supernatant is removed and resuspended in 1 mL PBS. […]

proteinase 3 (PR3) = test: PR3 activity in lysates of mouse bone marrow progenitor cells differentiated into neutrophils under DPP1 inhibitor; format: cell-based
Method: as §1, §2, §3, §4, §5, §6, §7, §8, §9, §10, §11, §12, §13, §14, §15

cathepsin G (CatG) = test: CatG activity in lysates of mouse bone marrow progenitor cells differentiated into neutrophils under DPP1 inhibitor; format: cell-based; details: for max inhibition of CatG activity observed: regardless of day
Method: as §1, §2, §3, §4, §5, §6, §7, §8, §9, §10, §11, §12, §13, §14, §15

T1 sequence (P53634 25-134 limits assumed): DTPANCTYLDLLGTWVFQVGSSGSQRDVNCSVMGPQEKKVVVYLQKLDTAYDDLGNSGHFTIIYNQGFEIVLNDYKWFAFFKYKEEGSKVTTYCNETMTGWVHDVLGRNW
T1 sequence (P53634 231-394 limits assumed): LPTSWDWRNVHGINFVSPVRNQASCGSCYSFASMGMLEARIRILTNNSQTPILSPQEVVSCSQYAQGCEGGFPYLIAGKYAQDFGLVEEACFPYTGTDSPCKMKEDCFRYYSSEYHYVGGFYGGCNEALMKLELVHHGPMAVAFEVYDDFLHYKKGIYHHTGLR
T1 sequence (P53634 395-463 limits assumed): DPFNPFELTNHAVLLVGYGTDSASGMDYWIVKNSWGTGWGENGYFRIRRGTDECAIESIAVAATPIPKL

Row | SMILES | IC50 (human DPP1) [nM] | Neutrophil Elastase Activity (% reduction from control) (Neutrophil elastase (NE); 0.02 μM, Day 3) [%] | Neutrophil Elastase Activity (% reduction from control) (Neutrophil elastase (NE); 0.02 μM, Day 5) [%] | Neutrophil Elastase Activity (% reduction from control) (Neutrophil elastase (NE); 0.02 μM, Day 7) [%] | Neutrophil Elastase Activity (% reduction from control) (Neutrophil elastase (NE); 0.1 μM, Day 3) [%] | Neutrophil Elastase Activity (% reduction from control) (Neutrophil elastase (NE); 0.1 μM, Day 5) [%] | Neutrophil Elastase Activity (% reduction from control) (Neutrophil elastase (NE); 0.1 μM, Day 7) [%] | maximum inhibition of NE activity observed (Neutrophil elastase (NE); regardless of day) | PR3 Activity (% reduction from control) (proteinase 3 (PR3); 0.02 μM, Day 3) [%] | PR3 Activity (% reduction from control) (proteinase 3 (PR3); 0.02 μM, Day 5) [%] | PR3 Activity (% reduction from control) (proteinase 3 (PR3); 0.02 μM, Day 7) [%] | PR3 Activity (% reduction from control) (proteinase 3 (PR3); 0.1 μM, Day 3) [%] | PR3 Activity (% reduction from control) (proteinase 3 (PR3); 0.1 μM, Day 5) [%] | PR3 Activity (% reduction from control) (proteinase 3 (PR3); 0.1 μM, Day 7) [%] | CatG Activity (% reduction from control) (cathepsin G (CatG); 0.02 μM, Day 3) [%] | CatG Activity (% reduction from control) (cathepsin G (CatG); 0.02 μM, Day 5) [%] | CatG Activity (% reduction from control) (cathepsin G (CatG); 0.02 μM, Day 7) [%] | CatG Activity (% reduction from control) (cathepsin G (CatG); 0.1 μM, Day 3) [%] | CatG Activity (% reduction from control) (cathepsin G (CatG); 0.1 μM, Day 5) [%] | CatG Activity (% reduction from control) (cathepsin G (CatG); 0.1 μM, Day 7) [%] | other results
1 | COC1CNC[C@@H](C(=O)N[C@H](C#N)Cc2ccc(-c3ccc4oc(=O)n(C)c4c3)cc2)OC1 (single isomer, unassigned) [INSM-203, (2S,6R*)—N-[(1S)-1-cyano-2-[4-(3-methyl-2-oxo-2,3-dihydro-1,3-benzoxazol-5-yl)phenyl]ethyl]-6-methoxy-1,4-oxazepane-2-carboxamide] | 0.6 ± 0.1 | 89 | 82 | 84 | 91 | 84 | 86 | ~ 85% | 93 | 93 | 85 | 94 | 94 | 84 | 93 | 97 | 94 | 99 | 100 | 96 | concentration by which PR3 inhibition plateau is reached (proteinase 3 (PR3)): ≤ 0.02 µM; max inhibition of PR3 activity observed (proteinase 3 (PR3); regardless of day): ~ 90%; max inhibition of CatG activity observed (cathepsin G (CatG)): ~ 95%
2 | COC1CNC[C@@H](C(=O)N[C@H](C#N)Cc2ccc(-c3ccc4oc(=O)n(C)c4c3)cc2)OC1 (mixture of isomers) [INSM-202, (6-rac)-(2S)—N-[(1S)-1-cyano-2-[4-(3-methyl-2-oxo-2,3-dihydro-1,3-benzoxazol-5-yl)phenyl]ethyl]-6-methoxy-1,4-oxazepane-2-carboxamide] | 1.03 ± 0.1 | 86 | 80 | 89 | 78 | 90 | 88 | ~ 85% | 94 | 95 | 93 | 94 | 96 | 98 | 93 | 94 | 99 | 100 | 100 | 100 | max inhibition of PR3 activity observed (proteinase 3 (PR3); regardless of day): ~ 95%; max inhibition of CatG activity observed (cathepsin G (CatG)): ~ 95%
3 | Cn1c(=O)oc2ccc(-c3ccc(C[C@@H](C#N)NC(=O)[C@@H]4CNC[C@H](O)CO4)cc3)cc21 (single isomer, unassigned) [INSM-201, (2S,6S*)—N-[(1S)-1-cyano-2-[4-(3-methyl-2-oxo-2,3-dihydro-1,3-benzoxazol-5-yl)phenyl]ethyl]-6-hydroxy-1,4-oxazepane-2-carboxamide] | 2.03 ± 0.2 | 67 | 42 | 78 | 83 | 83 | 84 |  | 45 | 36 | 72 | 79 | 96 | 96 | 46 | 27 | 78 | 90 | 94 | 98 | reduction in NE activity (Neutrophil elastase (NE)): concentration-dependent reduction in NE activity; maximum inhibition of NE activity observed (Neutrophil elastase (NE); at 0.1 μM regardless of day): ~ 85%; NE inhibition at low dose, fluctuations depending on the day (range) (Neutrophil elastase (NE); low dose, range over days): 42-78%; reduction in PR3 activity (proteinase 3 (PR3)): concentration-dependent reduction in PR3 activity; max inhibition of PR3 activity observed (proteinase 3 (PR3); at 1 μM on D5 and D7): ~ 95%; PR3 inhibition at low dose, fluctuations depending on the day (range) (proteinase 3 (PR3); low dose, range over days): 36%-72%; reduction in CatG activity (cathepsin G (CatG)): concentration-dependent reduction in CatG activity; max inhibition of CatG activity observed (cathepsin G (CatG); at 1 μM): ~ 95%; CatG inhibition at low dose, fluctuations depending on the day (range) (cathepsin G (CatG); low dose, range over days): 27-78%
